pIC50, pKi: −log10 of the molar value.
Columns and labels:
[1] = system: ICR derived immature female mice; test: In vivo estrogenic antagonism, estradiol-benzoate challenge, uterine wet weight; parameters: unit: %; conditions: 10 mg/kg s.c., three consecutive days, estradiol-benzoate 3 μg/kg s.c. challenge, uterus wet weight 24 h after final dose
Protocol: In Vivo Estrogenic Antagonism (MDS PharmaServices)
Compounds were administered s.c. (10 mg/kg) for three consecutive days to a group of 5 ICR derived immature female mice weighing approx. 13 g and challenged with estradiol-benzoate (3 μg/kg s.c.) immediately after each daily dosing. The animals were sacrificed 24 h after the final dose and wet weight of the uterus was measured. A 50% or greater reduction in the estradiol-induced increase in uterine weight indicates possible estrogen antagonist activity.

[2] = biological target: T1, hER-α (Homo sapiens, UniProt P03372); test: In vitro binding affinity to the estrogen receptor-α, displacement assay with 0.5 nM 3H-estradiol; conditions: hER-α recombinant, insect Sf cells, 0.5 nM 3H-estradiol radioligand, tested 0.03-10.0 nM; for pIC50: read-out: ERα-aff IC50; for pKi: read-out: ERα-aff Ki
T1 construct: purchased MDS PharmaServices (contract assay); host or cells: insect Sf cells
T1 sequence (P03372 1-595): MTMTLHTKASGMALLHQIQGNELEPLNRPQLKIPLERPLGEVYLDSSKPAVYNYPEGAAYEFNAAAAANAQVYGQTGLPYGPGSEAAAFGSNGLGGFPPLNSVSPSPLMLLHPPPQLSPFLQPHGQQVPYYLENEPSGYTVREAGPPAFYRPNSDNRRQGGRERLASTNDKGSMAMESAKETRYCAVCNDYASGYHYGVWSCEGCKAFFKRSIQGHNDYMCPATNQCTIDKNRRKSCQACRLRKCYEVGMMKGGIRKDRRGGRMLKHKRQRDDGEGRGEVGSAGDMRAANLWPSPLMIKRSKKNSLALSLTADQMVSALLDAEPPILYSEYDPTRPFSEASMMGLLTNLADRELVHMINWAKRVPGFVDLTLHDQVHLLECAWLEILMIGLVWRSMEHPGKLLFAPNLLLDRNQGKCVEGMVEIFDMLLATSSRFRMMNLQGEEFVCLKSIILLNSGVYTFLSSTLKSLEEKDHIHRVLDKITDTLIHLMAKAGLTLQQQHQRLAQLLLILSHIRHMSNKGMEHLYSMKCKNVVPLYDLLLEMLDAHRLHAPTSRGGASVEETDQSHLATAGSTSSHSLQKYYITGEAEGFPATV
Protocol: In Vitro Binding Affinty to the Estrogen Receptor-α (MDS PharmaServices)
Binding affinity was determined in a displacement assay using hER-α (recombinant, insect Sf cells) with 0.5 nM ^3H-estradiol as radioligand. The compounds were tested in concentrations from 0.03-10.0 nM. Results are given as IC50 and Ki.

[3] = system: ICR derived immature female mice; test: In vivo estrogenic agonism, uterine wet weight; conditions: 10 mg/kg s.c., three consecutive days, uterus wet weight 24 h after final dose
Protocol: In Vivo Estrogenic Agonism (MDS PharmaServices)
Compounds were administered s.c. (10 mg/kg) for three consecutive days to a group of 5 ICR derived immature female mice weighing approx. 13 g. The animals were sacrificed 24 h after the final dose and wet weight of the uterus was measured. A 50% or greater increase in the uterine weight relative to the vehicle control group indicates possible estrogen agonist activity.

Structure (SMILES) | in vivo antagonism (reduction in the estradiol-induced increase in uterine weight) [1] | pIC50 [2] | pKi [2] | In vivo agonism (increase in uterine weight relative to vehicle control) [3] [%]
CC12CCC3c4ccc(O)cc4CC(CCCCCCCCC[S+]([O-])CCCC(F)(F)C(F)(F)F)C3C1CCC2O (centres unmarked) [ICI 182, 780, reference compound] | 66 | – | – | –
CCCCN(C)C(=O)CCCCCCCCCC[C@@H]1Cc2cc(O)ccc2C2CC[C@@]3(C)C(C[C@@H](O)C34CC4)C21 (stereo partly drawn) [Ex 4, 11-(17-(1,2-Ethylene)-3,16α-dihydroxy-estra-1,3,5(10)-triene-7α-yl)-undecanoic acid n-butyl-methyl-amide] | 58 | 8.61 | 9.15 | 4
C[C@]12CCC3c4ccc(O)cc4C[C@@H](CCCCCCCCC[S+]([O-])CCCC(F)(F)C(F)(F)F)C3C1C[C@@H](O)C21CC1 (stereo partly drawn) [Ex 18, 17-(1,2-Ethylene)-3,16α-dihydroxy-7α-[9-[(4,4,5,5,5-pentafluoro-n-pentyl)sulfinyl]nonyl]-estra-1,3,5(10)-triene] | – | 9.04 | 9.59 | –
CO[C@@H]1c2cc(O)ccc2C2CC[C@@]3(C)C(C[C@@H](O)C34CC4)C2[C@@H]1CCCCCCCCC[S+]([O-])CCCC(F)(F)C(F)(F)F (stereo partly drawn) [Ex 14, 17-(1,2-Ethylene)-3,16α-dihydroxy-6α-methoxy-7α-[9-[(4,4,5,5,5-pentafluoro-n-pentyl)sulfinyl]nonyl]-estra-1,3,5(10)-triene] | – | < 8.00 | < 8.00 | –
CCCCN(C)C(=O)CCCCCCCCCC[C@@H]1Cc2cc(O)ccc2[C@H]2CC[C@]3(C)[C@@H](O)CC[C@H]3[C@H]12 [ICI 164, 384, 11-(3,17β-Dihydroxy-estra-1,3,5(10)-triene-7α-yl)-undecanoic acid n-butyl-methyl-amide, reference compound] | 66 | – | – | –
C=C1[C@H](O)C[C@H]2[C@@H]3[C@H](CCCCCCCCCCC(=O)N(C)CCCC)Cc4cc(O)ccc4[C@H]3CC[C@]12C [Ex 1, 11-(3,16α-Dihydroxy-17-methylene-estra-1,3,5(10)-triene-7α-yl)-undecanoic acid n-butyl-methyl-amide] | 61 | 8.46 | 9.00 | 1
CO[C@H]1c2cc(O)ccc2C2CC[C@@]3(C)C(C[C@@H](O)C34CC4)C2[C@@H]1CCCCCCCCC[S+]([O-])CCCC(F)(F)C(F)(F)F (some centres unmarked) [Ex 8] | – | 7.99 | 8.54 | –
C[C@]12CCC3c4ccc(O)cc4[C@@H](O)[C@@H](CCCCCCCCC[S+]([O-])CCCC(F)(F)C(F)(F)F)C3C1C[C@@H](O)C21CC1 (stereo partly drawn) [Ex 12, 17-(1,2-Ethylene)-3,6α,16α-trihydroxy-7α-[9-[(4,4,5,5,5-pentafluoro-n-pentyl)sulfinyl]nonyl]-1,3,5(10)-triene] | – | 8.80 | 9.35 | –
C=C1[C@H](O)CC2C3C(CC[C@]12C)c1ccc(O)cc1C[C@H]3CCCCCCCCC[S+]([O-])CCCC(F)(F)C(F)(F)F (some centres unmarked) [Ex 5] | 55 | 8.92 | 9.47 | 8
C[C@]12CCC3c4ccc(O)cc4C(=O)[C@@H](CCCCCCCCC[S+]([O-])CCCC(F)(F)C(F)(F)F)C3C1C[C@@H](O)C21CC1 (stereo partly drawn) [Ex 10, 17-(1,2-Ethylene)-3,16α-dihydroxy-6-keto-7α-[9-[(4,4,5,5,5-pentafluoro-n-pentyl)sulfinyl]nonyl]-estra-1,3,5(10)-triene] | – | 8.32 | 8.87 | –
C[C@]12CCC3c4ccc(O)cc4[C@H](F)[C@@H](CCCCCCCCC[S+]([O-])CCCC(F)(F)C(F)(F)F)C3C1C[C@@H](O)C21CC1 (stereo partly drawn) [Ex 16, 17-(1,2-Ethylene)-6β-fluoro-3,16α-dihydroxy-7α-[9-[(4,4,5,5,5-pentafluoro-n-pentyl)sulfinyl]nonyl]-estra-1,3,5(10)-triene] | – | 8.98 | 9.52 | –

Reference: patent publication US20070142345A1, “Steroids for cancer treatment” (priority 2004, published 2007)
